Experimental data as given in patent US8895761B2, “4-phenylpyrane-3,5-diones, 4-phenylthiopyrane-3,5-diones and 2-phenylcyclohexane-1,3,5-triones as herbicides” (Syngenta Limited, priority 2007, dated 2014).

Experiments:
Format in all cases: in vivo
[1] = test system: Alopecurus myosuroides (ALOMY); experiment: Pre-emergence herbicidal glasshouse test, Alopecurus myosuroides; details: Alopecurus myosuroides, 312 h, rate 250 g/ha, evaluated after 13 days, scale 100 = total damage to plant, 0 = no damage
In short: (§1)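 Visual damage scores (0 = undamaged, top = plant totally killed) were taken 13 days after spraying. Treatment was given one day after sowing or at day 8 of cultivation, under 24/16° C. glasshouse conditions.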

Setaria faberi (SETFA) [2] = experiment: Post-emergence herbicidal glasshouse test, Setaria faberi; details: Setaria faberi, 312 h, rate 250 g/ha, evaluated after 13 days, scale 100 = total damage to plant, 0 = no damage
Description: (§2) Seeds of a variety of test species were sown in standard soil in pots. After cultivation for one day (pre-emergence) or after 8 days cultivation (post-emergence) under controlled conditions in a glasshouse (at 24/16° C., day/night; 14 hours light; 65% humidity), the plants were sprayed with an aqueous spray solution derived from the formulation of the technical active ingredient in acetone/water (50:50) solution containing 0.5% Tween 20 (polyoxyethelyene sorbitan monolaurate, CAS RN 9005-64-5). The test plants were then grown in a glasshouse under controlled conditions in a glasshouse (at 24/16° C., day/night; 14 hours light; 65% humidity) and watered twice daily. After 13 days for pre and post-emergence, the test was evaluated ([…] to plant; 0=no damage to plant).
(§3) Setaria faberi (SETFA), Lolium perenne (LOLPE), Alopecurus myosuroides (ALOMY), Echinochloa crus-galli (ECHCG) and Avena fatua (AVEFA).

Setaria faberi (SETFA) [3] = experiment: Pre-emergence herbicidal glasshouse test, Setaria faberi; details: Setaria faberi, 312 h, rate 250 g/ha, evaluated after 13 days, scale 100 = total damage to plant, 0 = no damage
Description: as §2, §3

Avena fatua (AVEFA) [4] = experiment: Post-emergence herbicidal glasshouse test, Avena fatua; details: Avena fatua, 312 h, rate 250 g/ha, evaluated after 13 days, scale 100 = total damage to plant, 0 = no damage
In short: as §1

Avena fatua (AVEFA) [5] = experiment: Pre-emergence herbicidal glasshouse test, Avena fatua; details: Avena fatua, 312 h, rate 250 g/ha, evaluated after 13 days, scale 100 = total damage to plant, 0 = no damage
In short: as §1

[6] = test system: Alopecurus myosuroides (ALOMY); experiment: Post-emergence herbicidal glasshouse test, Alopecurus myosuroides; details: Alopecurus myosuroides, 312 h, rate 250 g/ha, evaluated after 13 days, scale 100 = total damage to plant, 0 = no damage
In short: as §1

[7] = test system: Echinochloa crus-galli (ECHCG); experiment: Post-emergence herbicidal glasshouse test, Echinochloa crus-galli; details: Echinochloa crus-galli, 312 h, rate 250 g/ha, evaluated after 13 days, scale 100 = total damage to plant, 0 = no damage
In short: as §1

[8] = test system: Echinochloa crus-galli (ECHCG); experiment: Pre-emergence herbicidal glasshouse test, Echinochloa crus-galli; details: Echinochloa crus-galli, 312 h, rate 250 g/ha, evaluated after 13 days, scale 100 = total damage to plant, 0 = no damage
In short: as §1

Lolium perenne (LOLPE) [9] = experiment: Post-emergence herbicidal glasshouse test, Lolium perenne; details: 312 h, rate 250 g/ha, evaluated after 13 days, scale 100 = total damage to plant, 0 = no damage
In short: as §1

Lolium perenne (LOLPE) [10] = experiment: Pre-emergence herbicidal glasshouse test, Lolium perenne; details: 312 h, rate 250 g/ha, evaluated after 13 days, scale 100 = total damage to plant, 0 = no damage
In short: as §1

SMILES	pest or weed control at 250 g/ha [1]	pest or weed control at 250 g/ha (Setaria faberi (SETFA) [2])	pest or weed control at 250 g/ha (Setaria faberi (SETFA) [3])	pest or weed control at 250 g/ha (Avena fatua (AVEFA) [4])	pest or weed control at 250 g/ha (Avena fatua (AVEFA) [5])	pest or weed control at 250 g/ha [6]	pest or weed control at 250 g/ha [7]	pest or weed control at 250 g/ha [8]	pest or weed control at 250 g/ha (Lolium perenne (LOLPE) [9])	pest or weed control at 250 g/ha (Lolium perenne (LOLPE) [10])
CCc1cc(-c2ccccc2)ccc1C1=C(O)[C@@]2(C)CC[C@H](O2)C1=O (racemic) [Compound A-4]	40%	60%	20%	0%	0%	80%	80%	40%	–	–
CCc1cc(-c2ccc(Cl)cc2)ccc1C1=C(O)[C@@]2(C)CC[C@H](O2)C1=O (racemic) [Compound A-5]	30%	100%	70%	70%	0%	90%	100%	40%	–	–
CCc1cc(-c2ccc(C)cc2)ccc1C1=C(O)[C@@]2(C)CC[C@H](O2)C1=O (racemic) [Compound A-6]	0%	80%	0%	30%	0%	70%	80%	0%	–	–
Cc1cc(-c2ccc(Cl)cc2)ccc1C1=C(O)[C@@]2(C)CC[C@H](O2)C1=O (racemic) [Compound A-10]	0%	100%	0%	50%	0%	90%	100%	30%	–	–
CCc1cc(-c2ccc(Cl)cc2)cc(CC)c1C1=C(O)[C@@]2(C)CC[C@H](O2)C1=O (racemic) [Compound A-11]	80%	100%	100%	100%	100%	100%	100%	100%	–	–
CCc1cc(-c2ccc(Cl)cc2Cl)cc(CC)c1C1=C(O)[C@@]2(C)CC[C@H](O2)C1=O (relative stereo) [Compound A-34]	–	90%	–	20%	–	30%	70%	–	–	–
CCc1cc(-c2ccc(F)c(F)c2F)ccc1C1=C(O)C(C)(C)SC(C)(C)C1=O [Compound B-9]	10%	–	–	80%	0%	60%	40%	0%	60%	10%
CCc1cc(-c2ccc(F)c(F)c2)ccc1C1=C(O)C(C)(C)[S+]([O-])C(C)(C)C1=O (stereo not shown) [Compound B-11]	50%	–	–	70%	20%	60%	40%	0%	60%	40%
CCc1cc(-c2ccc(F)c(OC)c2)ccc1C1=C(O)C(C)(C)S(=O)(=O)C(C)(C)C1=O [Compound B-16]	20%	–	–	80%	30%	50%	80%	40%	60%	40%
CCc1cc(-c2ccc(F)c(F)c2)ccc1C1=C(O)C(C)(C)S(=O)(=O)C(C)(C)C1=O [Compound B-17]	50%	–	–	70%	10%	80%	50%	10%	70%	50%
